The supplement of paper PMC7840683

System: HepaRG
Assay: LDH release cytotoxicity, % of total lysis control; higher = more cytotoxic
Conditions: 48 h
Method in brief: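 The CytoTox-ONE kit was used to read LDH in 50 µL spent medium as resorufin fluorescence on a Tecan Safire, with 0.1% Triton X added to total lysis wells. Beforehand, single-lot HepaRG cells on collagen I-coated 96-well plates had been exposed in duplicate for 48 h to eight-point half-log series (top 100 µM) in serum-free induction medium containing 0.5% DMSO. Percent cytotoxicity was normalized against on-plate vehicle and total lysis controls and averaged over duplicates.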

O=C=NCCCCCCN=C=O [1,6-Diisocyanatohexane]
Conditions	LDH release cytotoxicity [%]
0.03162 µM	-1.38
0.1 µM	-0.852
0.3162278 µM	0.3
1 µM	-0.656
3.16228 µM	0.0821
10 µM	0.975
31.6228 µM	0.748
100 µM	0.578

C=CCOC(=O)c1ccccc1C(=O)OCC=C [Diallyl phthalate]
Conditions	LDH release cytotoxicity [%]
0.03162 µM	0.139
0.1 µM	0.0319
0.3162278 µM	-0.423
1 µM	-0.76
3.16228 µM	-0.551
10 µM	0.184
31.6228 µM	-0.538
100 µM	0.377

O=C(O)Cc1cc(I)c(Oc2ccc(O)c(I)c2)c(I)c1 [Tiratricol]
Conditions	LDH release cytotoxicity [%]
0.03162 µM	1.48
0.1 µM	1.09
0.3162278 µM	1.5
1 µM	0.13
3.16228 µM	0.965
10 µM	0.402
31.6228 µM	-0.312
100 µM	21.5

Cc1ccc([N+](=O)[O-])cc1C [1,2-Dimethyl-4-nitrobenzene]
Conditions	LDH release cytotoxicity [%]
0.03162 µM	-1.16
0.1 µM	-1.81
0.3162278 µM	-1.44
1 µM	-1.1
3.16228 µM	-1.56
10 µM	-1.07
31.6228 µM	-0.524
100 µM	0.459

COCCOCCOC [Diethylene glycol dimethyl ether]
Conditions	LDH release cytotoxicity [%]
0.03162 µM	-0.901
0.1 µM	-2.67
0.3162278 µM	-2.41
1 µM	-2.68
3.16228 µM	-1.55
10 µM	-0.488
31.6228 µM	-0.826
100 µM	0.75

CNC(=O)Oc1cccc2c1OC(C)(C)O2 [Bendiocarb]
Conditions	LDH release cytotoxicity [%]
0.031623 µM	-1.26
0.1 µM	-1.64
0.316228 µM	-0.794
1 µM	-1.67
3.16228 µM	-1.78
10 µM	-2.76
31.6228 µM	-2.289
100 µM	-2.6

ClC1=C(Cl)C2(Cl)C3C(Cl)C=CC3C1(Cl)C2(Cl)Cl (centres undefined) [Heptachlor]
Conditions	LDH release cytotoxicity [%]
0.031623 µM	0.0329
0.1 µM	-3.41
0.316228 µM	-2.78
1 µM	-2.89
3.16228 µM	-2.85
10 µM	-1.78
31.6228 µM	-1.45
100 µM	-0.326

Cc1ccc([N+](=O)[O-])cc1N [5-Nitro-o-toluidine]
Conditions	LDH release cytotoxicity [%]
0.03162 µM	-0.782
0.1 µM	-1.02
0.3162278 µM	-1.84
1 µM	-1.647
3.16228 µM	-1.55
10 µM	-1.24
31.6228 µM	-0.792
100 µM	-0.343

[N-]=[N+]=[N-] [Sodium azide]
Conditions	LDH release cytotoxicity [%]
0.03162 µM	-0.587
0.1 µM	-0.947
0.3162278 µM	-1.17
1 µM	-1.29
3.16228 µM	-1.23
10 µM	-0.668
31.6228 µM	-0.413
100 µM	7.38

CC(=O)C1CCC2C3CCC4=CC(=O)CCC4(C)C3CCC12C (centres undefined) [Progesterone]
Conditions	LDH release cytotoxicity [%]
0.03162 µM	0.112
0.1 µM	-0.0962
0.3162278 µM	-0.597
1 µM	-0.509
3.16228 µM	-1.13
10 µM	-2
31.6228 µM	12.6
100 µM	55.9

CN(C)C1C(=O)C(C(N)=O)C(=O)C2(O)C(=O)C3C(=O)c4c(O)cccc4C(C)(O)C3C(O)C12 (centres undefined) [Oxytetracycline dihydrate]
Conditions	LDH release cytotoxicity [%]
0.03162 µM	-2.54
0.1 µM	-1.62
0.3162278 µM	-1.71
1 µM	-1.95
3.16228 µM	-1.59
10 µM	-2.1
31.6228 µM	-3.27
100 µM	-4

CCCCCCCCC(=O)O [Nonanoic acid]
Conditions	LDH release cytotoxicity [%]
0.03162 µM	-1.22
0.1 µM	-1.24
0.3162278 µM	-0.597
1 µM	-1.56
3.16228 µM	-2.05
10 µM	-1.39
31.6228 µM	-1.11
100 µM	3.09

O=NN(c1ccccc1)c1ccccc1 [N-Nitrosodiphenylamine]
Conditions	LDH release cytotoxicity [%]
0.03162 µM	-1.74
0.1 µM	-0.497
0.3162278 µM	-1.57
1 µM	-1.63
3.16228 µM	-0.54
10 µM	-0.535
31.6228 µM	1.3
100 µM	15.9

CCCCCCCCCCCCN1CCCC1=O [1-Dodecyl-2-pyrrolidinone]
Conditions	LDH release cytotoxicity [%]
0.031623 µM	-0.38
0.1 µM	-0.917
0.316228 µM	-3
1 µM	-2.75
3.16228 µM	-3.37
10 µM	-2.86
31.6228 µM	-2.4
100 µM	0.295

O=[N+]([O-])c1ccc(O)c([N+](=O)[O-])c1 [2,4-Dinitrophenol]
Conditions	LDH release cytotoxicity [%]
0.03162 µM	-0.273
0.1 µM	-1.23
0.3162278 µM	-0.515
1 µM	-1
3.16228 µM	-0.876
10 µM	0.105
31.6228 µM	0.264
100 µM	0.252

CSc1ccc(Oc2ccc(S(N)(=O)=O)cc2CN(C)C)cc1C
Conditions	LDH release cytotoxicity [%]
0.03162 µM	-1.53
0.1 µM	-2.12
0.3162278 µM	-3.24
1 µM	-3.17
3.16228 µM	-2.65
10 µM	-1.44
31.6228 µM	-1.38
100 µM	13.7

COc1cccc(-c2ccc(C=CCN3CCCCCC3)cc2Cl)c1
Conditions	LDH release cytotoxicity [%]
0.0286186 µM	-0.404
0.0905 µM	-2.18
0.2861861 µM	-2.02
0.905 µM	-1.85
2.86186 µM	-1.3
9.05 µM	-0.654
28.618613 µM	0.285
90.5 µM	71.6

CC12CCC3C(CCC4=CC(=O)CCC43C)C1CCC2=O (centres undefined) [4-Androstene-3,17-dione]
Conditions	LDH release cytotoxicity [%]
0.03162 µM	-0.88
0.1 µM	-1.74
0.3162278 µM	-3.47
1 µM	-2.45
3.16228 µM	-1.84
10 µM	-1.3
31.6228 µM	-0.324
100 µM	37.8

Cc1cc(C)cc(C)c1 [1,3,5-Trimethylbenzene]
Conditions	LDH release cytotoxicity [%]
0.03162 µM	-1.84
0.1 µM	-1.84
0.3162278 µM	-2.21
1 µM	-2.65
3.16228 µM	-2.52
10 µM	-1.42
31.6228 µM	-0.727
100 µM	1.41

Oc1cc(Cl)ccc1Oc1ccc(Cl)cc1Cl [Triclosan]
Conditions	LDH release cytotoxicity [%]
0.0322552 µM	-1.38
0.102 µM	-2.17
0.322552 µM	-2.07
1.02 µM	-1.47
3.2255232 µM	-2.05
10.2 µM	-1.6
32.2552 µM	-1.09
102 µM	-1.09

C=CCOC(Cn1ccnc1)c1ccc(Cl)cc1Cl (centres undefined) [Imazalil]
Conditions	LDH release cytotoxicity [%]
0.03162 µM	-1.02
0.1 µM	-0.85
0.3162278 µM	-0.00888
1 µM	-0.601
3.16228 µM	-0.652
10 µM	0.29
31.6228 µM	8.422
100 µM	69.6

CCOP(=S)(OCC)SCn1c(=O)oc2cc(Cl)ccc21 [Phosalone]
Conditions	LDH release cytotoxicity [%]
0.03162 µM	-2.44
0.1 µM	-3.01
0.3162278 µM	-2.19
1 µM	-2.28
3.16228 µM	-2.21
10 µM	-2.4
31.6228 µM	-1.63
100 µM	-1.09

CCO[Si](CCCNC(N)=O)(OCC)OCC [1-[3-(Triethoxysilyl)propyl]urea]
Conditions	LDH release cytotoxicity [%]
0.03162 µM	-1.05
0.1 µM	-2.25
0.3162278 µM	-1.8
1 µM	-2.22
3.16228 µM	-2.28
10 µM	-1.64
31.6228 µM	-1.55
100 µM	0.263

Cc1ccc([N+](=O)[O-])cc1 [4-Nitrotoluene]
Conditions	LDH release cytotoxicity [%]
0.03162 µM	-0.445
0.1 µM	-1.19
0.3162278 µM	-0.0775
1 µM	-0.642
3.16228 µM	-0.56
10 µM	-0.236
31.6228 µM	-0.713
100 µM	1.62

Nc1c(Cl)c(Cl)nc(C(=O)O)c1Cl [Picloram]
Conditions	LDH release cytotoxicity [%]
0.031623 µM	-0.672
0.1 µM	-3.68
0.316228 µM	-3.74
1 µM	-3.09
3.16228 µM	-2.76
10 µM	-2.73
31.6228 µM	-2.11
100 µM	0.666

O=C1CN(N=Cc2ccc([N+](=O)[O-])o2)C(=O)N1 [Nitrofurantoin]
Conditions	LDH release cytotoxicity [%]
0.03162 µM	-0.977
0.1 µM	-1.36
0.3162278 µM	-1.01
1 µM	-0.456
3.16228 µM	-1.09
10 µM	-0.861
31.6228 µM	-0.189
100 µM	2.15

O=C(O)c1cc(N=Nc2ccc(S(=O)(=O)Nc3ccccn3)cc2)ccc1O [Sulfasalazine]
Conditions	LDH release cytotoxicity [%]
0.03162 µM	-0.789
0.1 µM	-1.61
0.3162278 µM	-0.498
1 µM	-0.487
3.16228 µM	-0.767
10 µM	0.367
31.6228 µM	0.113
100 µM	1.04

CCOc1nc(F)cc2nc(S(=O)(=O)Nc3c(Cl)cccc3Cl)nn12 [Diclosulam]
Conditions	LDH release cytotoxicity [%]
0.01581 µM	-5.4
0.05 µM	-5.8
0.1581139 µM	-6.31
0.5 µM	-6.08
1.5811388 µM	-6.09
5 µM	-5.21
15.8114 µM	-4.75
50 µM	-3.63
